Source: patent US20100081689A1, “Methods and Compositions for the Treatment of Iron Toxicity” (Georgetown University, priority 2008, published 2010)

Columns and labels:
rat aortic rings = assay: animal or person; assay type: in vivo, Sprague-Dawley rats; details: for relaxation response to acetylcholine at 100 nM in iron treated rats given antioxidant: 100 nM acetylcholine, iron sucrose plus Tempol (drinking water), N-acetylcysteine 140 mg/kg iv or Vitamin C 100 mg/kg iv, iron alone 22±10%; for Maximum relaxation of aortic ring in iron-treated animals given antioxidant: iron sucrose 14 mg/kg iv plus Tempol 2 mmol/L in drinking water 72 h or N-acetylcysteine 140 mg/kg iv, iron alone 46±14%
Method: Forty seven normal Sprague-Dawley rats (280-350 g) were included in this study. Twenty three rats were injected in the tail vein with 14 mg/kg iron sucrose (Venofer, American Regent) twenty four hours before dissection of the aortic ring.
Twenty four hours after iron sucrose injection, the rats were sacrificed by interperitoneal injection of 100 mg/kg Inactin. Blood was collected for measurement of markers of oxidative stress and the thoracic aorta isolated and placed in ice cold PSS.
The surrounding tissue of aorta was carefully dissected away and care taken to not damage the endothelium. The aorta was then cut into a 4-5 mm width transverse ring and then mounted isometrically in 10 mL organ bath containing oxygenated PSS warmed to 37° C. and gassed with air.
The aortic ring was suspended under a resting force of […] and allowed to equilibrate for 30 minutes before administration of any agents. The bath was perfused with fresh PSS and was washed with PSS after each test response to the administered agents. The aortic ring was preconstricted with 10 nM phenylephrine prior to the addition of acetylcholine, and allowed to equilibrate for another 30 minutes.
Isometric contraction was measured on an oscillographic recorder. Subsequently acetylcholine was added to the bath in increasing doses of 1 nM to 100 μM and the relaxation response to each dose was recorded as the percentage of the drop in the starting resting force. […] P<0.05 was considered significant.

MDA levels = details: CKD patients treated with iron gluconate; cited from earlier work
aortic ring = details: cited from earlier work; for iron-induced endothelial dysfunction of the blood vessel: rats, iron co-administered with the antioxidant
[1] = light stability of Tempol solutions; assay type: physicochemical; details: solutions left in sunlight
oxidative stress markers = details: cited from earlier work

Compound: CC(=O)N[C@@H](CS)C(=O)O [N-acetylcysteine]
- relaxation response to acetylcholine at 100 nM in iron treated rats given antioxidant (rat aortic rings): 42±13%
- Maximum relaxation of aortic ring in iron-treated animals given antioxidant (rat aortic rings): 69.9±13%
- MDA level decrease after iron gluconate (MDA levels): not observed
- iron-induced endothelial dysfunction of the blood vessel (aortic ring): completely attenuated

Compound: CC1(C)CC(O)CC(C)(C)N1[O] [Tempol, 4-hydroxy-2,2,6,6-tetramethyl-1-piperidine-1-oxyl]
- relaxation response to acetylcholine at 100 nM in iron treated rats given antioxidant (rat aortic rings): 48±17%
- Maximum relaxation of aortic ring in iron-treated animals given antioxidant (rat aortic rings): 75±15%
- stability of solutions in sunlight [1]: discolor when left in sunlight
- iron-induced endothelial dysfunction of the blood vessel (aortic ring): completely attenuated

Compound: O=C1O[C@H]([C@@H](O)CO)C(O)=C1O [Vitamin C]
- relaxation response to acetylcholine at 100 nM in iron treated rats given antioxidant (rat aortic rings): 41±8%
- relaxation response to 100 nM through 100 μM of acetylcholine, addition to iron treatment (rat aortic rings; Vitamin C 100 mg/kg iv with iron sucrose, only statistically significant at 100 nM acetylcholine (FIG. 3)): increased the relaxation response
- reducing iron-induced oxidative stress markers (oxidative stress markers; dialysis population): not been shown to be effective
- effect when co-administered with iron (oxidative stress markers; subjects with physiologic Vitamin C levels): pro-oxidant effect

Compound: CC(=O)OCC[N+](C)(C)C [acetylcholine]
- IC50 (rat aortic rings; Rattus norvegicus, iv, aortic rings preconstricted with 10 nM phenylephrine, all treatment groups, read-out: IC50 for all dose response curves (acetylcholine relaxation of aortic ring)): 100 nM

Compound: iron sucrose
- relaxation response of aortic ring to increasing doses of acetylcholine (rat aortic rings; rat, in vivo): significantly reduced
- relaxation response to acetylcholine at 100 nM (rat aortic rings; rat, in vivo): 22±10%
- Maximum relaxation of aortic ring (percentage of the drop in the starting resting force) (rat aortic rings; rat, in vivo, iv, 14 mg/kg): 46±14%
- reduction in aortic ring vasodilation in response to acetylcholine (aortic ring; rat, in vivo, iv): 40%
